From PubChem BioAssay AID504763 (Sanford-Burnham Center for Chemical Genomics, 2011)
Active and inactive are the calls of the source. The rule behind the calls is not given here.

Each compound was assayed against Hexokinase-1 (Homo sapiens) (UniProt P19367) (assay: hexokinase 1 inhibition, dose response, selectivity assay for HKDC1 inhibitor project, biochemical (AID 504763)). Conditions: HK1 enzyme selectivity assay.
Sequence of Hexokinase-1 (Homo sapiens) (P19367 whole entry, looked up): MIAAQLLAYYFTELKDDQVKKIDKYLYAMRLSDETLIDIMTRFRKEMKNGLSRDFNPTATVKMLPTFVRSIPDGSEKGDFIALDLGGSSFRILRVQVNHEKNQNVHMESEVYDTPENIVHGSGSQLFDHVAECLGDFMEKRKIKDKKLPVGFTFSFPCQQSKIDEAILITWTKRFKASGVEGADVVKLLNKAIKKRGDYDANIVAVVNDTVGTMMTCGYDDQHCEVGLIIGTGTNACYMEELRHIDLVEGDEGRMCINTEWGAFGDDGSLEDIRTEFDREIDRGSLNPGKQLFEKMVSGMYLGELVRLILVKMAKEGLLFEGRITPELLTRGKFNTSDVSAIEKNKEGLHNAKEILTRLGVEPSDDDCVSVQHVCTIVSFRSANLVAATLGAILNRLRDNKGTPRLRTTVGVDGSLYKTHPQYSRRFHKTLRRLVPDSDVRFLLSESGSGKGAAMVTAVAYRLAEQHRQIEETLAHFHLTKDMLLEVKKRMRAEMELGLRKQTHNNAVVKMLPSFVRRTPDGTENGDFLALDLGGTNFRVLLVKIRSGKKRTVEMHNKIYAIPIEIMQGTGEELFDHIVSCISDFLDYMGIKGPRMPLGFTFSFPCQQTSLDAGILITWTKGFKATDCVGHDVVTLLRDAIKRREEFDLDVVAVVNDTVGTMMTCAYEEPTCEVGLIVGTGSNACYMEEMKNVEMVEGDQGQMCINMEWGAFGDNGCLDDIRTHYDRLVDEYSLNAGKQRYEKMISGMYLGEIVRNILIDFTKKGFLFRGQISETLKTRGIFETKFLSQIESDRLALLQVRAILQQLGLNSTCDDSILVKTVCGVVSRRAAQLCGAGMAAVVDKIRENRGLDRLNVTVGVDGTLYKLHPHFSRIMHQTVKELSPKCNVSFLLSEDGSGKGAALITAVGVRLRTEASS
`O=C(CNC(=O)/C=C/c1ccco1)N=Nc1c(O)[nH]c2ccccc12` was tested, and the IC50 was > 80 µM (inactive). For `COCc1cc(C2C(C(=O)c3ccco3)=C(O)C(=O)N2CCOCCO)ccc1O` (stereo not given), the IC50 was > 80 µM (inactive). `Cc1ccc(NC2c3ncccc3C(=O)N2c2ccccc2C)cc1C` (stereo not given) was tested, and the IC50 was > 80 µM (inactive). `Cc1nc2c(O)c3c(c(O)c2nc1C)C1C=CC3CC1` was tested, and the IC50 was 2.08 µM. In the case of `CC(NC1=CC(=O)c2cccnc2C1=O)C(O)c1ccccc1` (stereo not given), the IC50 is reported as “inactive”. With `C=CCn1c(SCC(=O)Nc2sc3c(c2C#N)CCC(C)C3)nc2cc(C(=O)O)ccc2c1=O` (stereo not given) the IC50 was > 80 µM (inactive). For `N#C/C(=C(/O)CCl)c1nc2c(s1)CCc1ccccc1-2`, the IC50 was “inactive”. With `Cc1ccc(N=Cc2cc(Cc3ccccc3Cl)cc([N+](=O)[O-])c2O)c(O)c1` the IC50 was > 80 µM (inactive). `COc1cc(/C=C(\C#N)c2nc3ccc(C)cc3[nH]2)cc([N+](=O)[O-])c1O` gave an IC50 of 18 µM. For `O=C1C(Cl)=C(NCCc2ccccc2)C(=O)c2ccccc21`, the IC50 was 18.5 µM. `CCCc1nc2c(c(=O)c3ccccc3n2C)c(=O)n1-c1ccc(F)cc1` was tested, and the IC50 was 6.47 µM. In the case of `Cc1cccc2c(N=NC(=O)c3ccc(NS(=O)(=O)c4cccs4)cc3)c(O)[nH]c12`, the IC50 is reported as “inactive”. For `COc1ccc(CN2C(=O)c3cccnc3C2O)cc1` (stereo not given), the IC50 was > 80 µM (inactive). With `COCC(=O)OC1CCn2c1nc1c2C(=O)C(C)=C(NC(C)=O)C1=O` (stereo not given) the IC50 was 2.15 µM. With `Oc1ccc(/C=N/Nc2ncc(Br)cn2)c(O)c1` the IC50 was > 80 µM (inactive). `O=C(NCCc1ccccc1)c1cnn2c(C(F)F)cc(C3CC3)nc12` gave an IC50 of 5.54 µM. In the case of `Cc1cccc(C)c1Nc1nnc(SCc2cn3cccc(C)c3n2)s1`, the IC50 is reported as > 80 µM (inactive). In the case of `COC1(NS(=O)(=O)c2ccc(Br)cc2)C(C)=CC(=O)C=C1C`, the IC50 is reported as > 80 µM (inactive). For `O=[N+]([O-])c1ccc(NN=Cc2ccc(O)cc2O)nc1`, the IC50 was > 80 µM (inactive). In the case of `CC1COCC(C)N1C1=C(Cl)C(=O)c2ccccc2C1=O` (stereo not given), the IC50 is reported as > 80 µM (inactive).
